Laboratory results published in patent US20130197073A1, “HYPOCHOLESTEROLEMIC, ANTI-INFLAMMATORY AND ANTIEPILEPTIC NEUROPROTECTIVE COMPOUND” (NEURON BIOPHARMA, S.A., priority 2010, published 2013).

How the values were obtained:
[1] = system: caspase 3/7; test: Inhibition of activation of caspase 3/7 in camptothecin cell model of apoptosis; type: cell-based, human; settings: 50 μM, positive control; 50 μM CPT 6 hours
Protocol: (§1) The assay was performed on human neuroblastoma SK-N-MC cells in culture, maintained as described in section 2.1.
The induction of apoptosis on the cells in culture was performed with camptothecin (CPT), which triggers the activation of cell apoptosis. Apoptosis was quantified by means of the measurement of the activation of effector caspases, caspase 3 or caspase 7, for which a kit for the fluorometric detection of active caspase 3/7 (Apo-ONE® Homogeneous Caspase-3/7, Promega) was used. Active caspases 3 or 7 of the cells cause the rupture of a substrate, which leads to fluorescence emission, which is read by means of a fluorometer. The effect of the pretreatment of compound NST0060 at 10 and 40 μM on the activation of caspase 3/7 produced by 50 μM of camptothecin (CPT) in the SK-N-MC cells was thus analyzed. These cells, not exceeding 15 passages, were seeded on 96-well plates treated for adherent cells with a cell concentration of 5×10^4 cells/well; 3 wells of the plate were seeded for each assay condition.
After 24 hours of cell incubation (at 37° C. and 5% CO2), the pretreatment with NST0060 at 10 and 40 μM was performed.
The cells were incubated (at 37° C. and 5% CO2) with these treatments for 6 hours, after which cell lysis buffer and the caspase substrate at the concentrations specified by the manufacturer were added; it was incubated at room temperature for 30 minutes and then frozen at −20° C. overnight. Fluorescence was measured the next day (499/521 nm, Exci/Emi).

[2] = system: human neuroblastoma SK-N-MC cells; test: Inhibition of DNA fragmentation (sub-G1, flow cytometry) in camptothecin cell model of apoptosis; type: cell-based; settings: 50 μM, positive control; 50 μM CPT
Protocol: as §1
The inhibition caused by compound NST0060 with respect to apoptosis caused by treatment with camptothecin (CPT), which inhibits the topoisomerase I enzyme, prevents DNA duplication and triggers apoptotic cell death. These cells, not exceeding 15 passages, were seeded on 6-well plates treated for adherent cells with a cell concentration of 7×10^5 cells/well; 2 wells of the plate were seeded for each assay condition.
After 24 hours of cell incubation (at 37° C. and 5% CO2), cell pretreatment was performed with 10 and 40 μM of NST0060 for 24 hours; they were subsequently treated with 50 μM CPT for 6 hours. Furthermore, Z-VAD-fmk at 50 μM was used as positive control for inhibition.
After treatment, the cells were collected along with their culture medium and centrifuged at 300×g for 5 minutes. The medium was removed, a washing was performed with PBS and the cells were fixed for 2 minutes with 500 μl of 70% ethanol at −20° C. […] After this time they were analyzed by flow cytometry, comparing the fluorescence of propidium iodide with respect to the amount of DNA. The percentage of apoptosis was measured on the sub-G1 region of each of the conditions.

[3] = system: zebrafish (Danio rerio, AB strain) embryos; test: Zebrafish embryo acute toxicity, mortality (OECD C.15); type: in vivo; settings: for Mortality (dead larvae with respect to the total): 3 days
Protocol: 30 control animals treated with dilution water and with daily replacement until the end of the assay.
30 animals treated with compound NST0060 (3 embryos for every ten replicates) diluted in dilution water at doses between 1 and 100 mg/Kg and with daily replacement of the substance during the days that the assay lasted.
After the time of exposure to the substances under study, the mortality record of the larvae was determined, results being shown in Table 2.

[4] = system: zebrafish (Danio rerio, AB strain) embryos; test: Zebrafish embryo cardiotoxicity, heart rate; settings: 72 hpt
[5] = system: zebrafish (Danio rerio, AB strain) embryos; test: Zebrafish embryo acute toxicity, percentage of healthy larvae; settings: mean±SD

Row | Compound | inhibition of the activation of caspase 3/7 [1] | inhibition of apoptosis (DNA fragmentation) caused by CPT [2] | Mortality (dead larvae with respect to the total) ([3]; Dose 1 mg/kg) | Mortality (dead larvae with respect to the total) ([3]; Dose 3 mg/kg) | Mortality (dead larvae with respect to the total) ([3]; Dose 10 mg/kg) | Mortality (dead larvae with respect to the total) ([3]; Dose 30 mg/kg) | Mortality (dead larvae with respect to the total) ([3]; Dose 100 mg/kg) | deaths out of 30 animals ([3]; dose of 10 mg/Kg, 72 h) | heart rate with respect to the controls ([4]; dose of 3 mg/Kg) | heart rate with respect to the controls ([4]; dose of 10 mg/Kg) | percentage of healthy larvae ([5]; dose of 1 mg/Kg) [%] | percentage of healthy larvae ([5]; dose of 3 mg/Kg) [%]
1 | Z-VAD-fmk [reference compound] | completely inhibited | specifically inhibited apoptosis caused by CPT | – | – | – | – | – | – | – | – | – | –
2 | CCC(C)(C)C(=O)O[C@H]1C[C@@H](C)C=C2C=C[C@H](C)[C@H](CC[C@@H]3C[C@@H](O)CC(=O)O3)[C@H]21 [simvastatin, reference compound] | – | – | 0/30 | 0/30 | 16/30 | 30/30 | 30/30 | 16 | significant decrease of the heart rate | significant decrease of the heart rate | 50.0±22.4 | 50.0±22.4
